Assay results as given in patent US6951882B2, “Substituted 4-phenyl-[1,3]-dioxanes” (Janssen Pharmaceutica N.V., priority 2002, dated 2005).

The molecules below were run against T1, orexin-2 receptor (Homo sapiens, UniProt O43614) (assay: Orexin radioligand binding assay (125I-orexin A, adherent recombinant cells)). Conditions: 125I-orexin A displacement, recombinant CHO-K1 or HEK-293 cells expressing the orexin receptor.
T1 construct: expressed in transfected cells; host or cells: CHO-K1 (preferred) or HEK-293 recombinant clones
T1 sequence (O43614 1-444): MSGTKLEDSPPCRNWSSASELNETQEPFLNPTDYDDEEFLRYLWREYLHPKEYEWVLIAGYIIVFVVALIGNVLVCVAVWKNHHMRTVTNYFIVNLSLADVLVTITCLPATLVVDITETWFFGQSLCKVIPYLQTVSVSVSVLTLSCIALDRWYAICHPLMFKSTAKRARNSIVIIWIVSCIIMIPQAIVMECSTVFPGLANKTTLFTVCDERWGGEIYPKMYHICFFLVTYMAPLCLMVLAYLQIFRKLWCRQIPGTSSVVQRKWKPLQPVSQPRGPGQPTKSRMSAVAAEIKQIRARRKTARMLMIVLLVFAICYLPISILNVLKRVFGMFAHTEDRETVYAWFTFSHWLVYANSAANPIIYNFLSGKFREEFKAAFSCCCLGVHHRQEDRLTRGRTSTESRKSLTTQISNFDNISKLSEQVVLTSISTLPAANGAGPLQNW
Procedure: The reaction was quenched with 100 μL of 10% w/v bovine serum albumin, then the products were pre-purified using Waters Maxi-Clean C18 cartridges (Alltech, San Jose, Calif.). The mobile phase for the reverse phase separations (pre-purification and gradient HPLC) was 0.1% TFA, and the eluent was 0.1% TFA in acetonitrile. After removing the acetonitrile from the Maxi-Clean cartridge eluent by lyophilization, the labeled compound was further purified by gradient HPLC using a Vydac (Hesperia, Calif.) analytical C18 HPLC column. A gradient of 2% acetonitrile/min was used and fractions were collected every 0.75 min at a flow rate of 1.5 mL/min.
Radioligand binding assays were performed in opaque, white 96-well tissue culture plates pretreated with poly-D-lysine (Bio-Coat plates, Becton Dickinson, Franklin Lakes, N.J.). Cells expressing the orexin receptor were seeded at 30,000 cells/well in 100 μL/well Ham's F12 with 10% heat inactivated fetal bovine serum, penicillin/streptomycin and 800 mg/L G418. […] In preparation for the binding assay, the cell culture medium was aspirated away, and the cells were gently washed with 100 μL-well binding buffer (Dulbecco's phosphate buffered saline containing 0.1% w/v bovine serum albumin). […] The assay was terminated by aspirating the liquid from the wells, washing the wells with iced binding buffer, aspirating the wells dry, adding 50 μL/well scintillation cocktail (MicroScint 40, Packard Biosciences, Meriden Conn.), and counting the plate(s) in a Packard TopCount scintillation counter. […] Data were analyzed using GraphPad Prizm software to calculate Ki values.

Ki | Structure (SMILES)
50 nM | Cc1cc(Br)ccc1NC(=O)N[C@H]1COC(C)(C)O[C@H]1c1ccccc1 [Example 2, 1-(4-Bromo-2-methyl-phenyl)-3-((4S,5S)-2,2-dimethyl-4-phenyl-[1,3]dioxan-5-yl)-urea]
27 nM | Cc1ccc(Cl)c(NC(=O)N[C@H]2COC(C)(C)O[C@H]2c2ccccc2)c1 [Example 3, 1-(2-Chloro-5-methyl-phenyl)-3-((4S,5S)-2,2-dimethyl-4-phenyl-[1,3]dioxan-5-yl)-urea]
70 nM | CC1(C)OC[C@H](NC(=O)Nc2ccccc2I)[C@H](c2ccccc2)O1 [Example 6, 1-((4S,5S)-2,2-Dimethyl-4-phenyl-[1,3]dioxan-5-yl)-3-(2-iodo-phenyl)-urea]
45 nM | CC1(C)OC[C@H](NC(=O)Nc2ccc(I)cc2)[C@H](c2ccccc2)O1 [Example 7, 1-((4S,5S)-2,2-Dimethyl-4-phenyl-[1,3]dioxan-5-yl)-3-(4-iodo-phenyl)-urea]
76 nM | CC1(C)OC[C@H](NC(=O)Nc2ccccc2C(F)(F)F)[C@H](c2ccccc2)O1 [Example 8, 1-((4S,5S)-2,2-Dimethyl-4-phenyl-[1,3]dioxan-5-yl)-3-(2-trifluoromethyl-phenyl)-urea]
87 nM | Cc1cc(NC(=O)N[C@H]2COC(C)(C)O[C@H]2c2ccccc2)ccc1Br [Example 9, 1-(4-Bromo-3-methyl-phenyl)-3-((4S,5S)-2,2-dimethyl-4-phenyl-[1,3]dioxan-5-yl)-urea]
98 nM | CC1(C)OC[C@H](NC(=O)Nc2cc(Cl)ccc2Cl)[C@H](c2ccccc2)O1 [Example 10, 1-(2,5-Dichloro-phenyl)-3-((4S,5S)-2,2-dimethyl-4-phenyl-[1,3]dioxan-5-yl)-urea]
64 nM | Cc1ccc(C)c(NC(=O)N[C@H]2COC(C)(C)O[C@H]2c2ccccc2)c1 [Example 11, 1-(2,5-Dimethyl-phenyl)-3-((4S,5S)-2,2-dimethyl-4-phenyl-[1,3]dioxan-5-yl)-urea]
34 nM | CC1(C)OC[C@H](NC(=O)Nc2ccccc2-c2cccs2)[C@H](c2ccccc2)O1 [Example 13, 1-((4S,5S)-2,2-Dimethyl-4-phenyl-[1,3]dioxan-5-yl)-3-(2-thiophen-2-yl-phenyl)-urea]
63 nM | CC1(C)OC[C@H](NC(=O)Nc2ccccc2-c2cccc(Cl)c2)[C@H](c2ccccc2)O1 [Example 14, 1-(3′-Chloro-biphenyl-2-yl)-3-((4S,5S)-2,2-dimethyl-4-phenyl-[1,3]dioxan-5-yl)-urea]
100 nM | CC1(C)OC[C@H](NC(=O)Nc2ccccc2-c2ccsc2)[C@H](c2ccccc2)O1 [Example 15, 1-((4S,5S)-2,2-Dimethyl-4-phenyl-[1,3]dioxan-5-yl)-3-(2-thiophen-3-yl-phenyl)-urea]
56 nM | CC1(C)OC[C@H](NC(=O)Nc2ccccc2-c2ccccc2)[C@H](c2ccccc2)O1 [Example 16, 1-Biphenyl-2-yl-3-((4S,5S)-2,2-dimethyl-4-phenyl-[1,3]dioxan-5-yl)-urea]
120 nM | CC1(C)OC[C@H](NC(=O)Nc2cc(C(F)(F)F)ccc2Cl)[C@H](c2ccccc2)O1 [Example 17, 1-(2-Chloro-5-trifluoromethyl-phenyl)-3-((4S,5S)-2,2-dimethyl-4-phenyl-[1,3]dioxan-5-yl)-urea]
60 nM | CC1(C)OC[C@H](NC(=O)Nc2ccccc2C#N)[C@H](c2ccccc2)O1 [Example 20, 1-(2-Cyano-phenyl)-3-((4S,5S)-2,2-dimethyl-4-phenyl-[1,3]dioxan-5-yl)-urea]
210 nM | CC1(C)OC[C@H](NC(=O)Nc2ccccc2Oc2ccccc2)[C@H](c2ccccc2)O1 [Example 21, 1-((4S,5S)-2,2-Dimethyl-4-phenyl-[1,3]dioxan-5-yl)-3-(2-phenoxy-phenyl)-urea]
280 nM | CC1(C)OC[C@H](/N=C(\S)Nc2ccc(Cl)cc2Cl)[C@H](c2ccccc2)O1 [Example 22, 1-(2,4-Dichloro-phenyl)-3-((4S,5S)-2,2-dimethyl-4-phenyl-[1,3]dioxan-5-yl)-thiourea]
320 nM | CC1(C)OC[C@H](NC(=O)Nc2ccccc2-c2cccnc2)[C@H](c2ccccc2)O1 [Example 23, 1-((4S,5S)-2,2-Dimethyl-4-phenyl-[1,3]dioxan-5-yl)-3-(2-pyridin-3-yl-phenyl)-urea]
540 nM | CC1(C)OC[C@H](/N=C(\S)Nc2ccccc2Br)[C@H](c2ccccc2)O1 [Example 24, 1-(2-Bromo-phenyl)-3-((4S,5S)-2,2-dimethyl-4-phenyl-[1,3]dioxan-5-yl)-thiourea]
700 nM | O=C(Nc1ccc(Br)cc1Br)N[C@H]1COC2(CCCCC2)O[C@H]1c1ccccc1 [Example 25, 1-(2,4-Dibromo-phenyl)-3-((2S,3S)-2-phenyl-1,5-dioxa-spiro[5.5]undec-3-yl)-urea]
980 nM | O=C(Nc1ccccc1Br)N[C@H]1COC2(CCCCC2)O[C@H]1c1ccccc1 [Example 26, 1-(2-Bromo-phenyl)-3-((2S,3S)-2-phenyl-1,5-dioxa-spiro[5.5]undec-3-yl)-urea]
1000 nM | Cc1ccc(/N=C(\NC#N)N[C@H]2COC(C)(C)O[C@H]2c2ccccc2)c(Br)c1 [Example 27, N-(2-Bromo-4-methyl-phenyl)-N′-((4S,5S)-2,2-dimethyl-4-phenyl-[1,3]dioxan-5-yl)-N″-cyanoguanidine]
2600 nM | CC1(c2ccccc2)OC[C@H](NC(=O)Nc2ccccc2Br)[C@H](c2ccccc2)O1 (stereo partly drawn) [Example 28, 1-(2-Bromo-phenyl)-3-((4S,5S)-2-methyl-2,4-diphenyl-[1,3]dioxan-5-yl)-urea]
200 nM | Cc1ccc(NC(=O)N[C@H]2COC(C)(C)O[C@H]2c2ccccc2)c(C)c1 [Example 29, 1-(2,4-Dimethyl-phenyl)-3-((4S,5S)-2,2-dimethyl-4-phenyl-[1,3]dioxan-5-yl)-urea]
300 nM | CC1(C)OC[C@H](NC(=O)Nc2ccccc2Cl)[C@H](c2ccccc2)O1 [Example 30, 1-(2-Chloro-phenyl)-3-((4S,5S)-2,2-dimethyl-4-phenyl-[1,3]dioxan-5-yl)-urea]
1550 nM | CC1(C)OC[C@H](NC(=O)Nc2ccccc2F)[C@H](c2ccccc2)O1 [Example 31, 1-((4S,5S)-2,2-Dimethyl-4-phenyl-[1,3]dioxan-5-yl)-3-(2-fluoro-phenyl)-urea]
650 nM | Cc1ccccc1NC(=O)N[C@H]1COC(C)(C)O[C@H]1c1ccccc1 [Example 32, 1-((4S,5S)-2,2-Dimethyl-4-phenyl-[1,3]dioxan-5-yl)-3-o-tolyl-urea]
580 nM | CC1(C)OC[C@H](NC(=O)Nc2ccccc2[N+](=O)[O-])[C@H](c2ccccc2)O1 [Example 33, 1-((4S,5S)-2,2-Dimethyl-4-phenyl-[1,3]dioxan-5-yl)-3-(2-nitro-phenyl)-urea]
2200 nM | CC1(C)OC[C@H](NC(=O)Cc2ccccc2Br)[C@H](c2ccccc2)O1 [Example 34, 2-(2-Bromo-phenyl)-N-((4S,5S)-2,2-dimethyl-4-phenyl-[1,3]dioxan-5-yl)-acetamide]
1400 nM | CC1(C)OC[C@H](NC(=O)Nc2ccc(Br)cc2)[C@H](c2ccccc2)O1 [Example 36, 1-(4-Bromo-phenyl)-3-((4S,5S)-2,2-dimethyl-4-phenyl-[1,3]dioxan-5-yl)-urea]

Structure (SMILES) | Ki
CC1(C)OC[C@H](NC(=O)Oc2ccccc2Cl)[C@H](c2ccccc2)O1 [Example 35, ((4S,5S)-2,2-Dimethyl-4-phenyl-[1,3]dioxan-5-yl)-carbamic acid 2-chloro-phenyl ester] | 2600 nM
